According to US6869964B2, “Heterocyclicsulfonamide hepatitis C virus inhibitors” (Bristol-Myers Squibb Company, priority 2002, dated 2005):
Where two headings read alike, the source gives them in different places.

Assays:
[1] = molecular target: T1, HCV NS3/4A protease complex (BMS strain) (Hepatitis C virus genotype 1a, UniProt P27958, C1454S); experiment: Recombinant HCV NS3/4A protease complex FRET peptide assay, BMS strain; type: biochemical, HCV genotype 1a
T1 construct: HCV NS3/4A protease complex (amino acids 1027 to 1711); inferred from pET21b vector and Ni-NTA purification; made in house; host or cells: Escherichia coli BL21 (DE3), pET21b
T1 sequence (P27958 1027-1657 C1454S): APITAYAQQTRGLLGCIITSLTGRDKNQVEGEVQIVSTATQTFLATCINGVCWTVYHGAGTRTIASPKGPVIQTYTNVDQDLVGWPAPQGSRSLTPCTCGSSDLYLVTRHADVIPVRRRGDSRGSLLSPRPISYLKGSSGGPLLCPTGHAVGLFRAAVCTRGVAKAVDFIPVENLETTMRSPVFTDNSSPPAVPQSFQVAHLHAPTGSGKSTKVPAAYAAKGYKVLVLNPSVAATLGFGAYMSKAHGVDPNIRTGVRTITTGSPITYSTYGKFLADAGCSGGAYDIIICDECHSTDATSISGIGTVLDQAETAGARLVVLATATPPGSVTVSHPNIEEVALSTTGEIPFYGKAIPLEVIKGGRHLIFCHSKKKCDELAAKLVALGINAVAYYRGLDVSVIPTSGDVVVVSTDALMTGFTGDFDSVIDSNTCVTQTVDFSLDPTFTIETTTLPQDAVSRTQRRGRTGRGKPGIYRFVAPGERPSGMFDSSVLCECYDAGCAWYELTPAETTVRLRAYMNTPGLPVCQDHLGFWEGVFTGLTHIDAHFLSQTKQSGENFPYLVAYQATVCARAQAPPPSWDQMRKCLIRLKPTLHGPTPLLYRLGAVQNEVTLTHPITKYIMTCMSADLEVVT
T1 sequence (P27958 1658-1711 partner, looked up, stated change not applied): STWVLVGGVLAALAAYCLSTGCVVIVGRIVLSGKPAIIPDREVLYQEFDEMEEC
Method in brief: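 Recombinant NS3/4A (aa 1027–1711) carried a three-lysine tail, C1711G and C1454S, was expressed in E. coli BL21(DE3) and purified by Ni-NTA and Superdex-S200 to >90% purity. Inhibition of protease cleavage of a FRET peptide was measured in vitro.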

[2] = molecular target: T2, HCV NS3/4A protease complex (H77C strain) (Hepatitis C virus genotype 1a, UniProt P27958, C1454S); experiment: Recombinant HCV NS3/4A protease complex FRET peptide assay, H77C strain; type: biochemical, HCV genotype 1a
T2 construct: HCV NS3/4A protease complex (amino acids 1027 to 1711); inferred from pET21b vector and Ni-NTA purification; made in house; host or cells: Escherichia coli BL21 (DE3), pET21b
T2 sequence (P27958 1027-1657 C1454S): as the sequence (P27958 1027-1657 C1454S) above
T2 sequence (P27958 1658-1711 partner, looked up, stated change not applied): as the sequence (P27958 1658-1711 partner, looked up, stated change not applied) above
Source text: (§1) Recombinant HCV NS3/4A Protease Complex FRET Peptide Assay
(§2) The purpose of this in vitro assay was to measure the inhibition of HCV NS3 protease complexes, derived from the BMS, H77C or J4l6S strains, as described below, by compounds of the present invention. This assay provides an indication of how effective compounds of the present invention would be in inhibiting HCV proteolytic activity.
(§3) Serum from an HCV-infected patient was obtained from Dr. T. Wright, San Francisco Hospital. An engineered full-length cDNA template of the HCV genome (BMS strain) was constructed from DNA fragments obtained by reverse transcription-PCR (RT-PCR) of serum RNA and using primers selected on the basis of homology between other genotype la strains. From the determination of the entire genome sequence, a genotype la was assigned to the HCV isolate according to the classification of Simmonds et al. (See P Simmonds, K A Rose, S Graham, S W Chan, F McOmish, B C Dow, E A Follett, P L Yap and H Marsden, J. Clin. Microbiol., 31(6), 1493-1503 (1993)). […]

human liver cathepsin B = molecular target: T3, human liver cathepsin B (Homo sapiens, UniProt P07858); experiment: Specificity assay, human liver cathepsin B; type: biochemical; conditions: 2 hr enzyme-inhibitor pre-incubation; solubility issues at 100 μM
T3 construct: one cysteine protease: human liver cathepsin B; from tissue; host or cells: human liver (from the enzyme's name only)
Procedure: (§4) The specificities of compounds of the present invention were determined against a variety of serine proteases: human sputum elastase (HS), porcine pancreatic elastase (PPE) and human pancreatic chymotrypsin and one cysteine protease: human liver cathepsin B. In all cases a 96-well plate format protocol using colorimetric p-nitroaniline (pNA) substrate specific for each enzyme was used as described previously (CT 2633 application) with some modifications to the serine protease assays.
(§5) Each assay included a 2 hr enzyme-inhibitor pre-incubation at RT followed by addition of substrate and hydrolysis to ˜30% conversion as measured on a Spectramax Pro microplate reader. Compound concentrations varied from 100 to 0.4 μM depending on their potency.
(§6) The percentage of inhibition was calculated using the formula: [1−((UVinh−UVblank)/(UVctl−UVblank))]×100
(§7) A non-linear curve fit was applied to the inhibition-concentration data, and the 50% effective concentration (IC50) was calculated by the use of Excel Xl-fit software.

[3] = molecular target: T4, HCV NS3/4A protease complex (J4L6S strain) (Hepatitis C virus genotype 1b, UniProt O92972, C1454S/C1711G); experiment: Recombinant HCV NS3/4A protease complex FRET peptide assay, J4L6S strain; type: biochemical, HCV genotype 1b
T4 construct: HCV NS3/4A protease complex (amino acids 1027 to 1711); inferred from pET21b vector and Ni-NTA purification; made in house; host or cells: Escherichia coli BL21 (DE3), pET21b
T4 sequence (O92972 1658-1711, stated change not applied): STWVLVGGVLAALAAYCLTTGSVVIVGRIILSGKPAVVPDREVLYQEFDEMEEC
T4 sequence (O92972 1027-1711, looked up, stated change not applied): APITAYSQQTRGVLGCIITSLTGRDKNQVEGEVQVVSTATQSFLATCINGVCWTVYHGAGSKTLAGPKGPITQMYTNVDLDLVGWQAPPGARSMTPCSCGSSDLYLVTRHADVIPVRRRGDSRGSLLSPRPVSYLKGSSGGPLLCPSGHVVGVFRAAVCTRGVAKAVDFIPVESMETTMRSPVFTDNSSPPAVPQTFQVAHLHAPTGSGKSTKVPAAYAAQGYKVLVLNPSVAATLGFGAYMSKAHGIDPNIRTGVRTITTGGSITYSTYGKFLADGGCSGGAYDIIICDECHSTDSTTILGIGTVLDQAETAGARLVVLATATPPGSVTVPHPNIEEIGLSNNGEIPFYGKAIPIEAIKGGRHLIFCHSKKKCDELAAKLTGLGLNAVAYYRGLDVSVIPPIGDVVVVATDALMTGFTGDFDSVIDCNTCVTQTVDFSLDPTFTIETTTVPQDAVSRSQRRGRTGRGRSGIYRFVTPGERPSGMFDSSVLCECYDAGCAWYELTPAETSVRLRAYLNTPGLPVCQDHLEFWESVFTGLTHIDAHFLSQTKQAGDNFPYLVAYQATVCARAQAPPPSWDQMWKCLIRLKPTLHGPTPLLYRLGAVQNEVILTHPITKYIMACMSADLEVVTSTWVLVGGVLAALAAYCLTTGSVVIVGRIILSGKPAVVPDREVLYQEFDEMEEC
Source text: as §1, §2, §3

[4] = tested on: human pancreatic chymotrypsin; experiment: Specificity assay, human pancreatic chymotrypsin; type: biochemical; conditions: 2 hr enzyme-inhibitor pre-incubation
Procedure: as §4, §5
The final conditions and protocol for the serine protease assays were: • 50 mM Tris(hydroxymethyl)aminomethane hydrochloride (Tris-HCl) pH8, • 0.5M Sodium Sulfate (Na2SO4), 50 mM NaCl, 0.1 mM EDTA, 3% DMSO, • 0.01% Tween-20 with: 133 μM succ-AAA-pNA and 20 nM HS or 8 nM PPE; 100 μM succ-AAPF-pNA and 250 pM Chymotrypsin.
as §6, §7

With `C=CC1C[C@]1(NC(=O)[C@@H]1C[C@@H](Oc2cc(-c3ccccc3)nc3cc(OC)ccc23)CN1C(=O)[C@@H](NC(=O)OC(C)(C)C)C(C)(C)C)C(=O)NS(=O)(=O)c1cccs1` (stereo in doubt) [Compound 1, (1-{4-(7-Methoxy-2-phenylquinolin-4-yloxy)-2-[1-(thiophene-2-sulfonylaminocarbonyl)-2-vinyl-cyclopropylcarbamoyl]-pyrrolidine-1-carbonyl}-2,2-dimethylpropyl)carbamic acid tert-butyl ester] the IC50 ([1]; BMS strain, read-out: IC50 against the NS3/4A BMS strain in the enzyme assay) was 8 nM, the IC50 ([1]; NS3/4A BMS Strain, activity range, read-out: IC50 a, b, c (Activity Table)) was less than 100 nM and the IC50 [2] was 2.2 nM. For the same compound, the IC50 (human liver cathepsin B) was greater than 50000 nM, the IC50 [3] was 1.6 nM and the IC50 [4] was greater than 50000 nM.
